{
  "source": "patent US12194294B2",
  "about": "“Oral drug delivery devices and methods using iontophoresis” (The Regents of the University of California, priority 2019, dated 2025)",
  "key": {"non-diabetic rats": {"test_system": "non-diabetic rats", "assay": "In vivo intestinal iontophoresis using insulin mucoadhesive patches: blood glucose", "parameters": "species or system rat", "description": "Insulin mucoadhesive patches were prepared as described in Banerjee, et al., “Intestinal Mucoadhesive Devices for Oral Delivery of Insulin,” Bioeng. Transl. Med. 1, 338-346 (2016). […] About 110 mg of the mixture was pressed at 3-ton pressure using a hydraulic press into a patch. The patches were then cut into 5×3 mm (length×breadth) sized rectangular smaller patches. One side of the patch was completely covered with aluminum foil using minimal amount of super glue placed at one corner of the foil. Wires with a small section of their protective insulation removed were then stuck on the aluminum foil using super glue. Care was taken not to cover the entire wire placed over the foil with super glue. The exposed wire sticking on to the patches were then taped with an electrical insulating tape to prevent any loss of current in vivo through exposed wire.\nIntestinal iontophoresis was carried out using a 6 V battery connected to the intestine. A potentiometer and an ammeter were used in the electrical circuit to accurately control and measure the electric current. Given that the identified safe threshold for iontophoresis is 0.5 mA/cm^2, the electrical parameters were selected in order to perform the studies using a safe current density of 0.33 mA/cm^2 (Singh, et. al., “Transdermal drug delivery by passive diffusion and iontophoresis: a review,” Med Res Rev., 13(5):569-621 (1993)). For the experiment, the rats were fasted overnight but given free access to water. Prior to the start of intestinal iontophoresis, the rats were anesthetized, a portion of abdomen prepped for surgery and an incision was made in the area to expose the intestine. Experiments were conducted using sterile instruments and following good surgical practices. […] Thereafter current (45-50 μA) was allowed to flow for 1.5 minutes followed by 3.5 minutes of recovery time for 1 h, amounting to a total 18 min of iontophoresis. After 1 h, the patches were left in place but the wires were disconnected from the battery and cut close to the inserted patches. The intestinal incisions with the patches left in place were stitched, the intestine put back into the abdomen and the muscle and skin sutured. Blood glucose was determined at the start of the study and at every 0.5 h till the end of study at 3 h. The rats were kept anesthetized until the end of experiment. Afterwards, the animals were euthanized and the intestinal sections in and around the patches were dissected for further histological examination to determine morphological changes, if any, due to iontophoresis.\nControl experiments with no electric current were conducted similarly.\nAbout 110 mg of the mixture was pressed at 3-ton pressure using a hydraulic press into a patch. The patches were then cut into 5×3 mm (length×breadth) sized rectangular smaller patches. One side of the patch was completely covered with aluminum foil using minimal amount of super glue placed at one corner of the foil. Wires with a small section of their protective insulation removed were then stuck on the aluminum foil using super glue. Care was taken not to cover the entire wire placed over the foil with super glue. The exposed wire sticking on to the patches were then taped with an electrical insulating tape to prevent any loss of current in vivo through exposed wire.\nThe circuit for in vivo experiments was set up as illustrated in FIG. 3. Intestinal iontophoresis was carried out using a 6 V battery connected to the intestine. A potentiometer and an ammeter were used in the electrical circuit to accurately control and measure the electric current. Given that the identified safe threshold for iontophoresis is 0.5 mA/cm2, the electrical parameters were selected in order to perform the studies using a safe current density of 0.33 mA/cm2 [8]. For the experiment, the rats were fasted overnight but given free access to water. […]"}, "Caco-2 cells [1]": {"test_system": "Caco-2 cells", "assay": "TEER measurement of tight junction integrity in Caco-2 monolayers during FITC-insulin transport study", "assay_type": "cell-based, human", "settings": "for TEER decrease: within 15 min", "protocol": "Transport experiments were carried out in triplicates and at least 3 transwells were used per trial for each group. Before the start of the experiment, the existing medium in the transwell was replaced with phenol red, FBS and P/S free DMEM in both the apical (200 μl) and basolateral side (600 μl) and the cells were incubated for 30 min. […] This was performed at 0.25, 0.5, 1, 2, 3 and 5 h. A 50 μA electric current was applied to the cells during the first hour of the study for a period of 10 min, followed by a 10 min recovery period and this was repeated another two times. At the end of 1 h (total 30 min iontophoresis), the transwell plates were kept inside an incubator at 37° C., 5% CO2 and only taken out to remove 100 μl aliquots from the basolateral side followed by replacement with same volume fresh medium at the aforementioned time periods. […] TEER was measured at every time point when aliquots were withdrawn from the transwells."}, "Caco-2 monolayers": {"test_system": "Caco-2 monolayers", "settings": "for FITC-insulin transported across the cells: end of 5 h; for Papp of FITC-insulin across the cells: in 5 h", "description": "(§1) Caco-2 human intestinal epithelial cells (passages #5-10) were cultured in DMEM containing 10% v/v FBS and 1% v/v P/S and seeded in 24 well plate transwells at a density of 2×10^5 cells/ml. 200 μl DMEM with cells was placed in apical side while 600 μl cell free DMEM was placed in the basolateral side. The cells were allowed to grow for a period of 18-21 days and medium replaced with fresh DMEM every other day.\n(§2) To maintain sterile conditions, all in vitro experiments including circuit set up were done under aseptic conditions in a biosafety cabinet. A 6 V battery was used to supply electrical current to transwells containing Caco-2 monolayer. The higher potential of the battery was connected to the basolateral side of the transwell while the lower potential of the battery connected to the apical side while taking care not to touch the transwell membranes with Caco-2 cell monolayer. The current applied to the cell was monitored by an ammeter and its value was adjusted to 50 μA using a potentiometer. Three different branches, each attached to an ammeter, potentiometer and transwell were connected in parallel across the battery to enable three different measurements at a time.\nTransport experiments were carried out in triplicates and at least 3 transwells were used per trial for each group. Before the start of the experiment, the existing medium in the transwell was replaced with phenol red, FBS and P/S free DMEM in both the apical (200 μl) and basolateral side (600 μl) and the cells were incubated for 30 minutes. […] This was performed at 0.25, 0.5, 1, 2, 3 and 5 h. A 50 μA electrical current was applied to the cells during the first hour of the study for a period of 10 min, followed by 10 min recovery period and this was repeated another two times. At the end of 1 h (total 30 minutes iontophoresis), the transwell plates were kept inside an incubator at 37° C., 5% CO2 and only taken out to remove 100 μl aliquots from the basolateral side followed by replacement with same volume fresh medium at the aforementioned time periods. […] TEER was measured at every time point when aliquots were withdrawn from the transwells. Apparent permeability coefficient (Papp) was calculated using the equation (Brown, et al., “Dermal and transdermal drug delivery systems: current and future prospects,” Drug Deliv. 13(3):175-87 (2006)):\nThe transport enhancement ratio (ER) was calculated using the equation (Brown, et al., 2006): […]\nas §1\nas §2, with “the battery was connected to” for “the battery connected to”, “a potentiometer. […]” for “a potentiometer. Three different branches, each attached to an ammeter, potentiometer and transwell were connected in parallel across the battery to enable three different measurements at a time.”"}, "Caco-2 cells [2]": {"test_system": "Caco-2 cells", "assay": "Confocal microscopy of FITC-insulin uptake by Caco-2 cells", "assay_type": "cell-based, human", "settings": "cells exposed to electric current compared to control wells", "description": "On the next day, the transwells were washed with HBSS and the membrane cut out and placed in glass slides. Mounting media with DAPI was added to the membranes and covered with glass slides. Confocal imaging was performed using Olympus Fluoview 1000 Spectral Confocal instrument at 60× magnification.\nOn the next day, the transwells were washed with HBSS and the membrane cut out and placed in glass slides. Mounting media with DAPI was added to the membranes and covered with glass slides. Confocal imaging was performed using Olympus Fluoview 1000™ Spectral Confocal instrument at 60× magnification."}, "[3]": {"settings": "control (no current) wells, 2 h"}, "[4]": {"settings": "control (no current) wells, 3 h"}, "[5]": {"settings": "1 U/kg, subcutaneously injected, 1.5 h"}, "[6]": {"settings": "1 U/kg, subcutaneously injected, 3 h"}},
  "note": "“Also recorded” adds a separate entry of the source. Read-outs that look alike come from different tables or passages of the source.",
  "data": [
    {"substance": "Human Insulin", "values": [
      {"measurement": "drop in blood glucose levels", "setting": "non-diabetic rats; 50 U/kg patch in intestine, 45-50 μA current, 3 h", "value": 63, "unit": "%"},
      {"measurement": "hypoglycemia", "setting": "non-diabetic rats; patches with iontophoresis, rats, up to 3 h", "value": "severely hypoglycemic"},
      {"measurement": "difference in TEER between control and electric current group", "setting": "Caco-2 cells [1]; at the end at 5 hours", "value": "no significant difference"},
      {"measurement": "TEER drop of initial levels", "setting": "Caco-2 cells [1]; electric current, 2 h", "value": 35, "unit": "%"}
    ]},
    {"substance": "fluorescein isothiocyanate (FITC)-insulin [FITC-insulin]", "values": [
      {"measurement": "FITC-insulin transported across the cells", "setting": "Caco-2 monolayers; control group (no current)", "value": "about 5.5 μg"},
      {"measurement": "FITC-insulin transported across the cells", "setting": "Caco-2 monolayers; electric current applied (50 μA)", "value": "approximately 14.1 μg"},
      {"measurement": "insulin transport across the cells, electric current vs control", "setting": "Caco-2 monolayers; from 2 hours onwards", "value": "significantly higher"},
      {"measurement": "Papp of FITC-insulin across the cells", "setting": "Caco-2 monolayers; without electricity", "value": 0.99, "unit": "×10⁻⁶ cm/s"},
      {"measurement": "Papp of FITC-insulin across the cells", "setting": "Caco-2 monolayers; without electricity (Example 3)", "value": 0.99, "unit": "×10⁻⁶ cm/s"},
      {"measurement": "TEER reduction of initial levels", "setting": "Caco-2 cells [1]; [3]", "value": "around 9%"},
      {"measurement": "TEER, % of initial levels", "setting": "Caco-2 cells [1]; [3]", "value": "91.2±1.1", "unit": "%"},
      {"measurement": "TEER reduction of initial levels", "setting": "Caco-2 cells [1]; [4]", "value": "~4", "unit": "%"},
      {"measurement": "TEER, % of initial levels", "setting": "Caco-2 cells [1]; [4]", "value": "95.6±6.5", "unit": "%"},
      {"measurement": "TEER decrease", "setting": "Caco-2 cells [1]; control group", "value": "no specific decrease"},
      {"measurement": "TEER drop of initial levels", "setting": "Caco-2 cells [1]; electric current, 2 h", "value": 35, "unit": "%"},
      {"measurement": "TEER, % of initial levels", "setting": "Caco-2 cells [1]; electric current, 2 h", "value": "65.7±3.8", "unit": "%"},
      {"measurement": "TEER decrease", "setting": "Caco-2 cells [1]; electric current", "value": 10, "unit": "%"},
      {"measurement": "uptake of FITC-insulin by cells (confocal images)", "setting": "Caco-2 cells [2]", "value": "presence of higher FITC-insulin; also recorded: higher uptake"},
      {"measurement": "uptake of FITC-insulin by cells (confocal images)", "setting": "Caco-2 cells [2]; listed as FITCmsulin", "value": "higher uptake"}
    ]},
    {"substance": "insulin solution: insulin solution injected intra-intestinally (50 U/kg) or subcutaneously (1 U/kg) as comparison", "values": [
      {"measurement": "blood glucose, % of initial levels", "setting": "non-diabetic rats; [5]", "value": "57.9±4.1", "unit": "%"},
      {"measurement": "maximum drop in blood glucose levels", "setting": "non-diabetic rats; [5]", "value": 42, "unit": "%"},
      {"measurement": "blood glucose drop after recovery", "setting": "non-diabetic rats; [6]", "value": "about 17%"},
      {"measurement": "blood glucose, % of initial levels", "setting": "non-diabetic rats; [6]", "value": "83.3±2.6", "unit": "%"},
      {"measurement": "drop in blood glucose levels with time", "setting": "non-diabetic rats; 50 U/kg, intra-intestinally injected", "value": "did not show any drop"}
    ]}
  ]
}
